The kinase profiling compilation of Christmann-Franck et al. (2016)
One block for each molecule: values may come before it.

What was measured:
Test in all cases: radiometric filter-binding kinase assay
HIPK3 (human) = HIPK3 (human) (UniProt Q9H422)
PIM1 (human) = PIM1 (human) (UniProt P11309)
MAPK3 (human) = MAPK3 (human) (UniProt P27361)
GSK3B (human) = GSK3B (human) (UniProt P49841)
MAPKAPK5 (human) = MAPKAPK5 (human) (UniProt Q8IW41)
SYK (human) = SYK (human) (UniProt P43405)
ERBB4 (human) = ERBB4 (human) (UniProt Q15303)
PRKCZ (human) = PRKCZ (human) (UniProt Q05513)
BRSK1 (human) = BRSK1 (human) (UniProt Q8TDC3)
MAPK9 (human) = MAPK9 (human) (UniProt P45984)
STK3 (human) = STK3 (human) (UniProt Q13188)
MAPK12 (human) = MAPK12 (human) (UniProt P53778)
FGFR1 (human) = FGFR1 (human) (UniProt P11362)
DYRK1A (human) = DYRK1A (human) (UniProt Q13627)
IGF1R (human) = IGF1R (human) (UniProt P08069)
PHKG1 (human) = PHKG1 (human) (UniProt Q16816)
PAK7 (human) = PAK7 (human) (UniProt Q9P286)
EEF2K (human) = EEF2K (human) (UniProt O00418)
IKBKE (human) = IKBKE (human) (UniProt Q14164)
MELK (human) = MELK (human) (UniProt Q14680)
MAPKAPK2 (human) = MAPKAPK2 (human) (UniProt P49137)
MKNK1 (human) = MKNK1 (human) (UniProt Q9BUB5)
BRSK2 (human) = BRSK2 (human) (UniProt Q8IWQ3)
MAPK13 (human) = MAPK13 (human) (UniProt O15264)
[1] = test system: SGK1 (human), O00141 [S422D]
PIM3 (human) = PIM3 (human) (UniProt Q86V86)
CAMKK2 (human) = CAMKK2 (human) (UniProt Q96RR4)
PIM2 (human) = PIM2 (human) (UniProt Q9P1W9)
PRKACA (human) = PRKACA (human) (UniProt P17612)
PRKAA1 or PRKAA2 (rat) = details: accession and sequence are those of the human protein

GSK3B (human), sequence (P49841 whole entry, looked up): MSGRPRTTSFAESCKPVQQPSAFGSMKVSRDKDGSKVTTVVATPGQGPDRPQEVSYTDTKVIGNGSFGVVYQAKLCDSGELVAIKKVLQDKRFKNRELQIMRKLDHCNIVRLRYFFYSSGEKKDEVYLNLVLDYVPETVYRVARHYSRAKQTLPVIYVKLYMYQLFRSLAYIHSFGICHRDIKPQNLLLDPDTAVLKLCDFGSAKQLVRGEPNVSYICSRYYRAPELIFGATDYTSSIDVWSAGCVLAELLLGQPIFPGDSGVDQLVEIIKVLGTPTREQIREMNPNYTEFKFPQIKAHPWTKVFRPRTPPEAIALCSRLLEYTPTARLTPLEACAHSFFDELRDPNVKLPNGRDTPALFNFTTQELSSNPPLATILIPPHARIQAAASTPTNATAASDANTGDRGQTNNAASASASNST
BRSK2 (human), sequence (Q8IWQ3 whole entry, looked up): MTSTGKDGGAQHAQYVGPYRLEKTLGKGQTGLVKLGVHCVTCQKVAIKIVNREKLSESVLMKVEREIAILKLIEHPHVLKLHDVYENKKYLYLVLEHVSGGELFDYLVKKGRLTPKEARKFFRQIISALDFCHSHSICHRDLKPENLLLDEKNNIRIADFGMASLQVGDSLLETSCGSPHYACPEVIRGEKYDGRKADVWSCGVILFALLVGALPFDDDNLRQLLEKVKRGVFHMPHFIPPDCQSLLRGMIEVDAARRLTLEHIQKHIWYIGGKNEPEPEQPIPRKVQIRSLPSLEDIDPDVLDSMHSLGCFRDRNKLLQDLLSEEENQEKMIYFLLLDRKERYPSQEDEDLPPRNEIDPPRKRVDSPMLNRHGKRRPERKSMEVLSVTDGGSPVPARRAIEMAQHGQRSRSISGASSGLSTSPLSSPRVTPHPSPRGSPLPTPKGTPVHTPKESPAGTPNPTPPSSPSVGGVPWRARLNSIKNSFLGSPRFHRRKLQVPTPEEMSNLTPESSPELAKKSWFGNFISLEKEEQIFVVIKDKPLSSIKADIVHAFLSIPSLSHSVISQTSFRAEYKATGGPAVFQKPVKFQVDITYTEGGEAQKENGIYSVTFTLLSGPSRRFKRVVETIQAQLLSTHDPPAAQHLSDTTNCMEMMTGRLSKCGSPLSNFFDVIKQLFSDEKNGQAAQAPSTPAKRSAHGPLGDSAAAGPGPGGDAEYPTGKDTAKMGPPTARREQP
PAK7 (human), sequence (Q9P286 whole entry, looked up): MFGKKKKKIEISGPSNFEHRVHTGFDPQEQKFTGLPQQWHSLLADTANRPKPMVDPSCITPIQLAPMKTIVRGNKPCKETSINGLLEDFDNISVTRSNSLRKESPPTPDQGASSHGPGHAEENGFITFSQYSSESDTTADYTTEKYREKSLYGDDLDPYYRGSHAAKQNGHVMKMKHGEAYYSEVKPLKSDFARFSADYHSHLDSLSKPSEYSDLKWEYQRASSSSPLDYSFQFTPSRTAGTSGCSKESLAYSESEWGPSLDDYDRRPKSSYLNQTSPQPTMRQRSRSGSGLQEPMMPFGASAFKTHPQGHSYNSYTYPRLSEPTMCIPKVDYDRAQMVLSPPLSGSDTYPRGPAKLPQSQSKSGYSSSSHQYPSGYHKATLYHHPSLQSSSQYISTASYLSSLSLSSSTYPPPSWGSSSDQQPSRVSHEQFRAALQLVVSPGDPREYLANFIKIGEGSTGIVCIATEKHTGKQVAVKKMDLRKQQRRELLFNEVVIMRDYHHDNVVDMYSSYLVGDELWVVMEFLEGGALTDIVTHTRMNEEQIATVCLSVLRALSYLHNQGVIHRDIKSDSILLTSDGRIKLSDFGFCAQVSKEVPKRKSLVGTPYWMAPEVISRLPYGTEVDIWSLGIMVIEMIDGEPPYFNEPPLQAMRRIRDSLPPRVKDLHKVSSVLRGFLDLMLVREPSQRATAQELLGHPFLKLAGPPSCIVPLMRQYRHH
HIPK3 (human), sequence (Q9H422 whole entry, looked up): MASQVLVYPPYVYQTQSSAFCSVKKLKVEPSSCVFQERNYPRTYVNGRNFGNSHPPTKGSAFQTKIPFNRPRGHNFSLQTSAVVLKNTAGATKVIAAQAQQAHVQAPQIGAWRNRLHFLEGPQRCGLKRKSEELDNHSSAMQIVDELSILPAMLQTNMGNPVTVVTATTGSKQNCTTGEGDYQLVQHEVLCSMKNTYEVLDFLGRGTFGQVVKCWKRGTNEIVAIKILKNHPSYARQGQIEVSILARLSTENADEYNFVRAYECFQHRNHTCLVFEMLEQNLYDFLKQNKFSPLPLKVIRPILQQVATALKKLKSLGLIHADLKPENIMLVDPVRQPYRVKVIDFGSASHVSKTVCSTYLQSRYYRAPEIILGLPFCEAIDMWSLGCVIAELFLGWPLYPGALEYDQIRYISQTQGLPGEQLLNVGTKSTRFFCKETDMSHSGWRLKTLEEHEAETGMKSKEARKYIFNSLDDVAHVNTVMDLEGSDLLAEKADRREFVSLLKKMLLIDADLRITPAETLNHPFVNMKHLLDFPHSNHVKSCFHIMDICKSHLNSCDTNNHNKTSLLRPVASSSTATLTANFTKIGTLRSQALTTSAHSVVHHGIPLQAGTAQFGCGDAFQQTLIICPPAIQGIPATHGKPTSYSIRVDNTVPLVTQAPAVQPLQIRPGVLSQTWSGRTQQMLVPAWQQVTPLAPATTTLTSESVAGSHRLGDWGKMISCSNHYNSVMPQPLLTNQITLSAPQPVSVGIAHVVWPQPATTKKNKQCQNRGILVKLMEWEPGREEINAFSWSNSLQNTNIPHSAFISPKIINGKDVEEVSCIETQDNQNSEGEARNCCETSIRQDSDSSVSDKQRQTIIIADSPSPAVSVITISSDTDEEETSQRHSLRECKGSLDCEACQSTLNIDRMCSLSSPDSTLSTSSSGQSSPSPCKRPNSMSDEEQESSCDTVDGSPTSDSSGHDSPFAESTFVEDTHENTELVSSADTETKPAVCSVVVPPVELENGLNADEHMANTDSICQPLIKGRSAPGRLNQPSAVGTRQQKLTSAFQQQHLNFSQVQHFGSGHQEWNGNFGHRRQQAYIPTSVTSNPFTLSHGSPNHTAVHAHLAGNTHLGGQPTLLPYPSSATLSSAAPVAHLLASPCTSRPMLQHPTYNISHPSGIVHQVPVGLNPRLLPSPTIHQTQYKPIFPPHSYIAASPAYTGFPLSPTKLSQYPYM
CAMKK2 (human), sequence (Q96RR4 whole entry, looked up): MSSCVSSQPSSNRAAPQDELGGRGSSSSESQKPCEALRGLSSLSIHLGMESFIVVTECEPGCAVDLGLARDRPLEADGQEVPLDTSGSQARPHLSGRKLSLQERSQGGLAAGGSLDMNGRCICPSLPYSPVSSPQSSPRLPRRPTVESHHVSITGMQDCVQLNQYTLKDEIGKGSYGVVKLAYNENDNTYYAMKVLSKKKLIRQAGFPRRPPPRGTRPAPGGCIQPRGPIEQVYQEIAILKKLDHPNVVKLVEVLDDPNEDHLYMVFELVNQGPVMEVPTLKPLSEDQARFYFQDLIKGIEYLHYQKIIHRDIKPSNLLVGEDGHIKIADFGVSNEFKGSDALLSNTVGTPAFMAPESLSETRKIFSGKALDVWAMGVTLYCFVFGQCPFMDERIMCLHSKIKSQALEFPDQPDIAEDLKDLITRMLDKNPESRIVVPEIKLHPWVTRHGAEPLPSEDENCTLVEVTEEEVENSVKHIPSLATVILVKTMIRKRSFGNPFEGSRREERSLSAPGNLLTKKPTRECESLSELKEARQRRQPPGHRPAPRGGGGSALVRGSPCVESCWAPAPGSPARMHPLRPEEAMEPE
MELK (human), sequence (Q14680 whole entry, looked up): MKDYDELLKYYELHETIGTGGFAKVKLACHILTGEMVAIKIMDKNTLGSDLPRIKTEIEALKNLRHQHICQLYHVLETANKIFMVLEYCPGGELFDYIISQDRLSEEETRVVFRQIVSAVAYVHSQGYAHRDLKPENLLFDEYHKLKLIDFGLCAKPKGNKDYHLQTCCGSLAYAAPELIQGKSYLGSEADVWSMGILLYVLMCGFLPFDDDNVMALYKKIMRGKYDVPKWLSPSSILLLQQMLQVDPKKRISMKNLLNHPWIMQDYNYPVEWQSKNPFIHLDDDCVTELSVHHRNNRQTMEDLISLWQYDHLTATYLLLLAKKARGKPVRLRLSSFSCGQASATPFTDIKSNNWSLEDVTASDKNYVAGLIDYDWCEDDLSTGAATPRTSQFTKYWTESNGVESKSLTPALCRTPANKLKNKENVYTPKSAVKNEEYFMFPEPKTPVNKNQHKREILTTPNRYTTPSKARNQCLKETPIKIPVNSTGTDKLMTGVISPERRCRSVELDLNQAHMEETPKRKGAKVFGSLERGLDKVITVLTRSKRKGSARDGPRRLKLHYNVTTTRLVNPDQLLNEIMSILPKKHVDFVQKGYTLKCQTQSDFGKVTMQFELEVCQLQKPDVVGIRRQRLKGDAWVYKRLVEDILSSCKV
STK3 (human), sequence (Q13188 whole entry, looked up): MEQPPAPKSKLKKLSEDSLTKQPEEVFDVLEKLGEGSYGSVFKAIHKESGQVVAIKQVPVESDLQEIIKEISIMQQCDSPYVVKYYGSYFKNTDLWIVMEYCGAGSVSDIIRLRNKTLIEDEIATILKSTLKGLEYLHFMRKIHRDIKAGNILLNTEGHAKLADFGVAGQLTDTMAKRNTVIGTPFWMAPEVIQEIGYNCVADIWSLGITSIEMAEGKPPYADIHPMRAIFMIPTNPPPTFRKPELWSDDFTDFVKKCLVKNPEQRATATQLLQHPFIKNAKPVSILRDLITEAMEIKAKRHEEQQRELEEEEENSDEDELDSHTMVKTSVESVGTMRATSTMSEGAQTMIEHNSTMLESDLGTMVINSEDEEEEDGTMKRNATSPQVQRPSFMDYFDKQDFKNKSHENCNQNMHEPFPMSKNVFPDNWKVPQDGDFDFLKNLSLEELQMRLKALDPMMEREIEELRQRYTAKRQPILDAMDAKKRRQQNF

residual activity (HIPK3 (human); compound 1.0 µM): 111%
residual activity (HIPK3 (human); compound 10.0 µM): 102%
residual activity (PIM1 (human); compound 1.0 µM): 87%
residual activity (PIM1 (human); compound 10.0 µM): 94%
residual activity (MAPK3 (human); compound 10.0 µM): 93%
residual activity (GSK3B (human); compound 1.0 µM): 110%
residual activity (GSK3B (human); compound 10.0 µM): 101%
residual activity (MAPKAPK5 (human); compound 1.0 µM): 88%
residual activity (MAPKAPK5 (human); compound 10.0 µM): 87%
residual activity (SYK (human); compound 1.0 µM): 84%
residual activity (SYK (human); compound 10.0 µM): 125%
residual activity (ERBB4 (human); compound 1.0 µM): 109%
residual activity (ERBB4 (human); compound 10.0 µM): 104%
residual activity (PRKCZ (human); compound 1.0 µM): 70%
residual activity (PRKCZ (human); compound 10.0 µM): 83%
residual activity (BRSK1 (human); compound 1.0 µM): 101%
residual activity (BRSK1 (human); compound 10.0 µM): 103%
residual activity (MAPK9 (human); compound 1.0 µM): 85%
residual activity (MAPK9 (human); compound 10.0 µM): 88%
residual activity (STK3 (human); compound 1.0 µM): 94%
residual activity (STK3 (human); compound 10.0 µM): 104%
residual activity (MAPK12 (human); compound 1.0 µM): 111%
residual activity (MAPK12 (human); compound 10.0 µM): 101%
residual activity (FGFR1 (human); compound 1.0 µM): 93%
residual activity (FGFR1 (human); compound 10.0 µM): 100%
residual activity (DYRK1A (human); compound 1.0 µM): 81%
residual activity (DYRK1A (human); compound 10.0 µM): 94%
residual activity (IGF1R (human); compound 1.0 µM): 86%
residual activity (IGF1R (human); compound 10.0 µM): 120%
residual activity (PHKG1 (human); compound 1.0 µM): 103%
residual activity (PHKG1 (human); compound 10.0 µM): 97%
residual activity (PAK7 (human); compound 1.0 µM): 119%
residual activity (PAK7 (human); compound 10.0 µM): 99%
residual activity (EEF2K (human); compound 1.0 µM): 83%
residual activity (EEF2K (human); compound 10.0 µM): 75%
residual activity (IKBKE (human); compound 1.0 µM): 90%
residual activity (IKBKE (human); compound 10.0 µM): 86%
residual activity (MELK (human); compound 1.0 µM): 88%
residual activity (MELK (human); compound 10.0 µM): 89%
residual activity (MAPKAPK2 (human); compound 1.0 µM): 85%
residual activity (MAPKAPK2 (human); compound 10.0 µM): 96%
residual activity (MKNK1 (human); compound 1.0 µM): 86%
residual activity (MKNK1 (human); compound 10.0 µM): 78%
residual activity (BRSK2 (human); compound 1.0 µM): 91%
residual activity (BRSK2 (human); compound 10.0 µM): 85%
residual activity (MAPK13 (human); compound 1.0 µM): 96%
residual activity (MAPK13 (human); compound 10.0 µM): 102%
residual activity ([1]; compound 1.0 µM): 99%
residual activity ([1]; compound 10.0 µM): 98%
residual activity (PIM3 (human); compound 1.0 µM): 88%
residual activity (PIM3 (human); compound 10.0 µM): 85%
residual activity (CAMKK2 (human); compound 1.0 µM): 91%
residual activity (CAMKK2 (human); compound 10.0 µM): 86%
residual activity (PIM2 (human); compound 1.0 µM): 95%
residual activity (PIM2 (human); compound 10.0 µM): 105%
residual activity (PRKACA (human); compound 1.0 µM): 95%
residual activity (PRKACA (human); compound 10.0 µM): 93%
residual activity (PRKAA1 or PRKAA2 (rat); compound 1.0 µM): 94%
residual activity (PRKAA1 or PRKAA2 (rat); compound 10.0 µM): 102%
Compound: CN1C(=O)[C@@H](Cc2c[nH]c3ccccc23)NC1=S

residual activity (HIPK3 (human); compound 1.0 µM): 136%
residual activity (HIPK3 (human); compound 10.0 µM): 138%
residual activity (PIM1 (human); compound 1.0 µM): 127%
residual activity (PIM1 (human); compound 10.0 µM): 115%
residual activity (MAPK3 (human); compound 1.0 µM): 114%
residual activity (MAPK3 (human); compound 10.0 µM): 108%
residual activity (GSK3B (human); compound 1.0 µM): 114%
residual activity (GSK3B (human); compound 10.0 µM): 133%
residual activity (MAPKAPK5 (human); compound 1.0 µM): 101%
residual activity (MAPKAPK5 (human); compound 10.0 µM): 109%
residual activity (PRKCZ (human); compound 1.0 µM): 89%
residual activity (PRKCZ (human); compound 10.0 µM): 112%
residual activity (MAPK9 (human); compound 1.0 µM): 104%
residual activity (MAPK9 (human); compound 10.0 µM): 117%
residual activity (STK3 (human); compound 1.0 µM): 90%
residual activity (STK3 (human); compound 10.0 µM): 102%
residual activity (MAPK12 (human); compound 1.0 µM): 120%
residual activity (MAPK12 (human); compound 10.0 µM): 132%
residual activity (DYRK1A (human); compound 1.0 µM): 90%
residual activity (DYRK1A (human); compound 10.0 µM): 101%
residual activity (PHKG1 (human); compound 1.0 µM): 106%
residual activity (PHKG1 (human); compound 10.0 µM): 101%
residual activity (PAK7 (human); compound 1.0 µM): 139%
residual activity (PAK7 (human); compound 10.0 µM): 124%
residual activity (EEF2K (human); compound 1.0 µM): 97%
residual activity (EEF2K (human); compound 10.0 µM): 96%
residual activity (MELK (human); compound 1.0 µM): 108%
residual activity (MELK (human); compound 10.0 µM): 118%
residual activity (MAPKAPK2 (human); compound 1.0 µM): 101%
residual activity (MAPKAPK2 (human); compound 10.0 µM): 104%
residual activity (MKNK1 (human); compound 1.0 µM): 92%
residual activity (MKNK1 (human); compound 10.0 µM): 96%
residual activity (BRSK2 (human); compound 1.0 µM): 102%
residual activity (BRSK2 (human); compound 10.0 µM): 100%
residual activity (MAPK13 (human); compound 1.0 µM): 101%
residual activity (MAPK13 (human); compound 10.0 µM): 105%
residual activity ([1]; compound 1.0 µM): 104%
residual activity ([1]; compound 10.0 µM): 113%
residual activity (PIM3 (human); compound 1.0 µM): 120%
residual activity (PIM3 (human); compound 10.0 µM): 121%
residual activity (CAMKK2 (human); compound 1.0 µM): 125%
residual activity (CAMKK2 (human); compound 10.0 µM): 117%
residual activity (PIM2 (human); compound 1.0 µM): 115%
residual activity (PIM2 (human); compound 10.0 µM): 113%
residual activity (PRKACA (human); compound 1.0 µM): 106%
residual activity (PRKACA (human); compound 10.0 µM): 98%
residual activity (PRKAA1 or PRKAA2 (rat); compound 1.0 µM): 111%
residual activity (PRKAA1 or PRKAA2 (rat); compound 10.0 µM): 114%
Compound: Cc1cccc(Nc2nn(C)c3ncnc(N)c23)c1
